# Target: P. falciparum apicoplast DNA polymerase (Pf-apPOL) (Plasmodium falciparum, UniProt Q8ILY1)
# Assay: Fluorescence-based high-throughput DNA polymerase assay (molecular beacon), primary screen and dose-response;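 as to % inhibition ApPOL 90': test concentration in µM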;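 as to % inhibition apPOL 180': test concentration in µM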
# Type: biochemical
# How it was run: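 Single-point screening used 10 µM compound with 20 nM polymerase, 20 nM hairpin substrate and 6 µM dNTPs for 90 min at 25 °C. Confirmatory titrations (2.5–80 µM) followed fluorescence at three times, and IC50 was derived from a fit including a cooperativity term n.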
# [1] = supplemental file 2, sheet IC50 nontoxic compounds; Pf-apPOL
# Chain of P. falciparum apicoplast DNA polymerase (Pf-apPOL) (Q8ILY1 entry or part of it): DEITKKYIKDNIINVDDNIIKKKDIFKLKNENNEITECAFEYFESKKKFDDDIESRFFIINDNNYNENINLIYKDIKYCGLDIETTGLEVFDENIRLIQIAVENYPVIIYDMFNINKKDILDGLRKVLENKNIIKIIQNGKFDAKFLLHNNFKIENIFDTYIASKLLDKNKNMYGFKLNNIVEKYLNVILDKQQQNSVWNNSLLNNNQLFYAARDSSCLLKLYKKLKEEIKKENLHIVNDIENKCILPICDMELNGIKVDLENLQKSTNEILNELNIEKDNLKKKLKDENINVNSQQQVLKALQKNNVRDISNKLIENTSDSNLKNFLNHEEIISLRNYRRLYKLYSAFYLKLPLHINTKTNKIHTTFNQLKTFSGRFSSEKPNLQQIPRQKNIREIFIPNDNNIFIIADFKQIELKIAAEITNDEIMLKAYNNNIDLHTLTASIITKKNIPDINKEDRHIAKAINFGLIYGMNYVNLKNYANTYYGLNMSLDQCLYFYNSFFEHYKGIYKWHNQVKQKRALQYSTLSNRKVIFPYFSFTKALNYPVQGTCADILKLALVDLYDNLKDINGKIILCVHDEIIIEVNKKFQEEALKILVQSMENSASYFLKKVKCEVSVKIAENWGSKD
structure (smiles),measurement,setting,value
CS(=O)(=O)c1cccc(C(=O)Nc2nnc(-c3ccno3)o2)c1 [KU0171319],DNA Pol,"186 hits, value of the hit list (primary screen); unit not given; 90 min, 10 µM",45
same,% inhibition Apo pol 10',DRC-1; 10'; concentration 2.5,6.657%
same,% inhibition Apo pol 10',DRC-1; 10'; concentration 5,14.8177%
same,% inhibition Apo pol 10',DRC-1; 10'; concentration 10,36.7259%
same,% inhibition Apo pol 10',DRC-1; 10'; concentration 20,44.3674%
same,% inhibition Apo pol 10',DRC-1; 10'; concentration 40,60.0862%
same,% inhibition Apo pol 10',DRC-1; 10'; concentration 80,69.7787%
same,% inhibition Apol 90',DRC-1; 90'; concentration 2.5,-3.363%
same,% inhibition Apol 90',DRC-1; 90'; concentration 5,1.476%
same,% inhibition Apol 90',DRC-1; 90'; concentration 10,14.1125%
same,% inhibition Apol 90',DRC-1; 90'; concentration 20,18.6112%
same,% inhibition Apol 90',DRC-1; 90'; concentration 40,31.6807%
same,% inhibition Apol 90',DRC-1; 90'; concentration 80,46.8389%
same,% inhibition apPOL 180',DRC-1; 180'; concentration 2.5,-9.274%
same,% inhibition apPOL 180',DRC-1; 180'; concentration 5,-6.316%
same,% inhibition apPOL 180',DRC-1; 180'; concentration 10,0.8537%
same,% inhibition apPOL 180',DRC-1; 180'; concentration 20,2.328%
same,% inhibition apPOL 180',DRC-1; 180'; concentration 40,13.3473%
same,% inhibition apPOL 180',DRC-1; 180'; concentration 80,27.8767%
same,% inhibition Apo pol 5',"DRC-2, 5', concentration 2.5",8%
same,% inhibition Apo pol 5',"DRC-2, 5', concentration 5",13%
same,% inhibition Apo pol 5',"DRC-2, 5', concentration 10",24%
same,% inhibition Apo pol 5',"DRC-2, 5', concentration 20",29%
same,% inhibition Apo pol 5',"DRC-2, 5', concentration 40",32%
same,% inhibition Apo pol 5',"DRC-2, 5', concentration 80",22%
same,% inhibition Apol 40',"DRC-2, 40', concentration 2.5",1.54%
same,% inhibition Apol 40',"DRC-2, 40', concentration 5",4.6%
same,% inhibition Apol 40',"DRC-2, 40', concentration 10",13%
same,% inhibition Apol 40',"DRC-2, 40', concentration 20",17%
same,% inhibition Apol 40',"DRC-2, 40', concentration 40",28%
same,% inhibition Apol 40',"DRC-2, 40', concentration 80",35%
same,% inhibition ApPOL 90',"DRC-2, 90', concentration 2.5",-0.356%
same,% inhibition ApPOL 90',"DRC-2, 90', concentration 5",0.372%
same,% inhibition ApPOL 90',"DRC-2, 90', concentration 10",8%
same,% inhibition ApPOL 90',"DRC-2, 90', concentration 20",11%
same,% inhibition ApPOL 90',"DRC-2, 90', concentration 40",21%
same,% inhibition ApPOL 90',"DRC-2, 90', concentration 80",34%
same,% inhibition apPOL 180',"DRC-2, 180', concentration 2.5",-5.4%
same,% inhibition apPOL 180',"DRC-2, 180', concentration 5",-8%
same,% inhibition apPOL 180',"DRC-2, 180', concentration 10",-3%
same,% inhibition apPOL 180',"DRC-2, 180', concentration 20",-2.43%
same,% inhibition apPOL 180',"DRC-2, 180', concentration 40",7.43%
same,% inhibition apPOL 180',"DRC-2, 180', concentration 80",26%
same,% inhibition Apo pol 5',DRC-2; 5'; concentration 2.5,8%
same,% inhibition Apo pol 5',DRC-2; 5'; concentration 5,13%
same,% inhibition Apol 40',DRC-2; 40'; concentration 10,13%
same,% inhibition ApPOL 90',DRC-2; 90'; concentration 10,8%
same,DNA Pol,"primary screen value, 'DNA Pol' only; 90 min, 10 µM",45
O=C(Cn1ccc2c(=O)[nH]ccc21)Nc1cccc(Cl)c1 [Molecule 23],IC50,[1],9.11 µM
O=[N+]([O-])c1cc2c(cc1CN1CCN(c3cccc(Cl)c3)CC1)OCO2 [KU0005610],DNA Pol,"'DNA Pol'; screening value, unit not given; 90 min, 10 µM",40
same,% inhibition Apo pol 10',DRC-1; 10'; concentration 2.5,13.4536%
same,% inhibition Apo pol 10',DRC-1; 10'; concentration 5,19.449%
same,% inhibition Apo pol 10',DRC-1; 10'; concentration 10,35.0383%
same,% inhibition Apo pol 10',DRC-1; 10'; concentration 20,58.0522%
same,% inhibition Apo pol 10',DRC-1; 10'; concentration 40,81.6045%
same,% inhibition Apo pol 10',DRC-1; 10'; concentration 80,82.8557%
same,% inhibition Apol 90',DRC-1; 90'; concentration 2.5,0.2927%
same,% inhibition Apol 90',DRC-1; 90'; concentration 5,2.869%
same,% inhibition Apol 90',DRC-1; 90'; concentration 10,13.5382%
same,% inhibition Apol 90',DRC-1; 90'; concentration 20,40.3549%
same,% inhibition Apol 90',DRC-1; 90'; concentration 40,64.8091%
same,% inhibition Apol 90',DRC-1; 90'; concentration 80,60.8313%
same,% inhibition apPOL 180',DRC-1; 180'; concentration 2.5,-5.629%
same,% inhibition apPOL 180',DRC-1; 180'; concentration 5,-4.543%
same,% inhibition apPOL 180',DRC-1; 180'; concentration 10,2.609%
same,% inhibition apPOL 180',DRC-1; 180'; concentration 20,32.6998%
same,% inhibition apPOL 180',DRC-1; 180'; concentration 40,54.6533%
same,% inhibition apPOL 180',DRC-1; 180'; concentration 80,41.754%
same,% inhibition Apo pol 5',"DRC-2, 5', concentration 2.5",6%
same,% inhibition Apo pol 5',"DRC-2, 5', concentration 5",11%
same,% inhibition Apo pol 5',"DRC-2, 5', concentration 10",25%
same,% inhibition Apo pol 5',"DRC-2, 5', concentration 20",34%
same,% inhibition Apo pol 5',"DRC-2, 5', concentration 40",45%
same,% inhibition Apo pol 5',"DRC-2, 5', concentration 80",49%
same,% inhibition Apol 40',"DRC-2, 40', concentration 2.5",2.55%
same,% inhibition Apol 40',"DRC-2, 40', concentration 5",6.48%
same,% inhibition Apol 40',"DRC-2, 40', concentration 10",18%
same,% inhibition Apol 40',"DRC-2, 40', concentration 20",28%
same,% inhibition Apol 40',"DRC-2, 40', concentration 40",49%
same,% inhibition Apol 40',"DRC-2, 40', concentration 80",61%
same,% inhibition ApPOL 90',"DRC-2, 90', concentration 2.5",-0.242%
same,% inhibition ApPOL 90',"DRC-2, 90', concentration 5",1.42%
same,% inhibition ApPOL 90',"DRC-2, 90', concentration 10",11%
same,% inhibition ApPOL 90',"DRC-2, 90', concentration 20",20%
same,% inhibition ApPOL 90',"DRC-2, 90', concentration 40",45%
same,% inhibition ApPOL 90',"DRC-2, 90', concentration 80",61%
same,% inhibition apPOL 180',"DRC-2, 180', concentration 2.5",-7.6%
same,% inhibition apPOL 180',"DRC-2, 180', concentration 5",-5.3%
same,% inhibition apPOL 180',"DRC-2, 180', concentration 10",2.12%
same,% inhibition apPOL 180',"DRC-2, 180', concentration 20",7%
same,% inhibition apPOL 180',"DRC-2, 180', concentration 40",32%
same,% inhibition apPOL 180',"DRC-2, 180', concentration 80",53%
same,% inhibition Apo pol 5',conc 5 (unit not given); 5'; DRC-2,11%
same,% inhibition ApPOL 90',conc 10 (unit not given); 90'; DRC-2,11%
same,% inhibition Apo pol 5',conc 40 (unit not given); 5'; DRC-2,45%
same,% inhibition Apol 40',conc 40 (unit not given); 40'; DRC-2,49%
same,% inhibition ApPOL 90',conc 40 (unit not given); 90'; DRC-2,45%
same,% inhibition Apo pol 5',conc 80 (unit not given); 5'; DRC-2,49%
same,% inhibition Apol 40',conc 80 (unit not given); 40'; DRC-2,61%
same,% inhibition ApPOL 90',conc 80 (unit not given); 90'; DRC-2,61%
same,DNA Pol,"primary screen hit value, DNA Pol (186 hits); 90 min, 10 µM",40
CO/N=C(\C(=O)N[C@@H]1C(=O)N2C(C(=O)O)=C(CSc3nc(=O)c(O)nn3C)CSC12)c1csc(N)n1 (stereo partly shown) [Molecule 83],IC50,[1],18.7 µM
"COC(=O)c1sc(-c2ccc(C(C)(C)C)cc2)cc1NC(=O)CCC(=O)O [Molecule 87, COC(=O)c1sc(cc1NC(=O)CCC(=O)O)c1ccc(cc1)C(C)(C)C]",DNA Pol,"'DNA Pol' of the 186 hits list (screen value); 90 min, 10 µM",96
same,% inhibition Apo pol 10',DRC-1; 10'; conc 2.5,19.7971%
same,% inhibition Apo pol 10',DRC-1; 10'; conc 5,30.0237%
same,% inhibition Apo pol 10',DRC-1; 10'; conc 10,55.209%
same,% inhibition Apo pol 10',DRC-1; 10'; conc 20,85.0828%
same,% inhibition Apo pol 10',DRC-1; 10'; conc 40,94.7696%
same,% inhibition Apo pol 10',DRC-1; 10'; conc 80,96.2943%
same,% inhibition Apol 90',DRC-1; 90'; conc 2.5,13.7781%
same,% inhibition Apol 90',DRC-1; 90'; conc 5,20.5036%
same,% inhibition Apol 90',DRC-1; 90'; conc 10,48.04%
same,% inhibition Apol 90',DRC-1; 90'; conc 20,81.7697%
same,% inhibition Apol 90',DRC-1; 90'; conc 40,91.7617%
same,% inhibition Apol 90',DRC-1; 90'; conc 80,95.9877%
same,% inhibition apPOL 180',DRC-1; 180'; conc 2.5,10.0944%
same,% inhibition apPOL 180',DRC-1; 180'; conc 5,11.9548%
same,% inhibition apPOL 180',DRC-1; 180'; conc 10,36.7594%
same,% inhibition apPOL 180',DRC-1; 180'; conc 20,75.8676%
same,% inhibition apPOL 180',DRC-1; 180'; conc 40,89.861%
same,% inhibition apPOL 180',DRC-1; 180'; conc 80,95.0797%
same,% inhibition Apo pol 5',DRC-2; 5'; conc 2.5,12%
same,% inhibition Apo pol 5',DRC-2; 5'; conc 5,9%
same,% inhibition Apo pol 5',DRC-2; 5'; conc 10,35%
same,% inhibition Apo pol 5',DRC-2; 5'; conc 20,50%
same,% inhibition Apo pol 5',DRC-2; 5'; conc 40,60%
same,% inhibition Apo pol 5',DRC-2; 5'; conc 80,59%
same,% inhibition Apo pol 5',DRC-2; 5'; concentration 5,9%
same,% inhibition Apol 40',DRC-2; 40'; conc 2.5,11%
same,% inhibition Apol 40',DRC-2; 40'; conc 5,9%
same,% inhibition Apol 40',DRC-2; 40'; conc 10,40%
same,% inhibition Apol 40',DRC-2; 40'; conc 20,61%
same,% inhibition Apol 40',DRC-2; 40'; conc 40,72%
same,% inhibition Apol 40',DRC-2; 40'; conc 80,72%
same,% inhibition Apol 40',DRC-2; 40'; concentration 5,9%
same,% inhibition Apol 40',DRC-2; 40'; concentration 40,72%
same,% inhibition Apol 40',DRC-2; 40'; concentration 80,72%
same,% inhibition ApPOL 90',DRC-2; 90'; conc 2.5,9%
same,% inhibition ApPOL 90',DRC-2; 90'; conc 5,7%
same,% inhibition ApPOL 90',DRC-2; 90'; conc 10,38%
same,% inhibition ApPOL 90',DRC-2; 90'; conc 20,62%
same,% inhibition ApPOL 90',DRC-2; 90'; conc 40,74%
same,% inhibition ApPOL 90',DRC-2; 90'; conc 80,75%
same,% inhibition ApPOL 90',DRC-2; 90'; concentration 2.5,9%
same,% inhibition apPOL 180',DRC-2; 180'; conc 2.5,6%
same,% inhibition apPOL 180',DRC-2; 180'; conc 5,4%
same,% inhibition apPOL 180',DRC-2; 180'; conc 10,32%
same,% inhibition apPOL 180',DRC-2; 180'; conc 20,57%
same,% inhibition apPOL 180',DRC-2; 180'; conc 40,72%
same,% inhibition apPOL 180',DRC-2; 180'; conc 80,73%
same,% inhibition apPOL 180',DRC-2; 180'; concentration 40,72%
same,DNA Pol,"primary screen value, ""DNA Pol""; 90 min, 10 µM",96
N#Cc1c(C2CCCCC2)nc(Sc2ccc(C(F)(F)F)cc2[N+](=O)[O-])[nH]c1=O [Molecule 20],IC50,[1],8.81 µM
Cc1ccc(NC(=O)C2CCN(C(=O)c3cc4ccsc4[nH]3)CC2)c(Br)c1 [Molecule 14],IC50,[1],6.6 µM
COc1cccc(C(=O)N2CCc3c(nc4cc(-c5ccccc5)[nH]n4c3=O)C2)c1OC [Molecule 22],IC50,[1],7.31 µM
COc1ccc(NC(=O)Cn2nc3c(cc2=O)CCC3)cc1Cl [Molecule 4],IC50,[1],5.29 µM
CN(C)C=C1SCc2ccccc2C1=O [Molecule 77],IC50,[1],23.7 µM
